From ChEMBL document CHEMBL3826917, “Anti-inflammatory properties of pterocarpanquinone LQB-118 in mice” (Bioorg Med Chem, 2016)
Calls of active or inactive are those of the source. No cut-off for these calls is given here.

What was measured:
[1] = tested on: Mus musculus; assay: Antiinflammatory activity in LPS-induced C57BL/6 mouse model of lung inflammation assessed as reduction in TNF-alpha release in bronchoalveolar lavage fluid at 10 mg/kg, ip administered 1 hr prior to LPS-challenge measured after 3 hrs by ELISA; format: functional, organism-based
[2] = tested on: Mus musculus; assay: Antiinflammatory activity in LPS-induced C57BL/6 mouse model of lung inflammation assessed as reduction in keratinocyte-derived chemokine release in bronchoalveolar lavage fluid at 10 mg/kg, ip administered 1 hr prior to LPS-challenge measured after 3 hrs by ELISA; format: functional, organism-based
[3] = tested on: Mus musculus; assay: Antiinflammatory activity in LPS-induced C57BL/6 mouse model of lung inflammation assessed as reduction in NF-kappaB activation at 10 mg/kg, ip administered 1 hr prior to LPS-challenge measured after 3 hrs by electrophoretic mobility shift assay; format: functional, organism-based
[4] = tested on: PBMC; assay: Inhibition of LPS-induced TNF-alpha production in human PBMC at 1 to 100 uM administered prior to LPS-challenge measured after 2 hrs by ELISA; format: functional, cell-based
[5] = tested on: Mus musculus; assay: (§1) Antiinflammatory activity in LPS-induced C57BL/6 mouse model of lung inflammation assessed as decrease in neutrophil infiltration in bronchoalveolar lavage fluid at 100 mg/kg, ip administered 1 hr prior to LPS-challenge measured after 3 hrs by Diff-Quik staining-based coulter particle counter method relative to vehicle-treated control; format: functional; conditions: C57BL/6, ip
[6] = tested on: Mus musculus; assay: as §1, with “1 to 10” for “100”, “method” for “method relative to vehicle-treated control”; format: functional, organism-based
[7] = tested on: Mus musculus; assay: Toxicity in LPS-induced C57BL/6 mouse model of lung inflammation assessed as change in spleen weight at 1 to 100 mg/kg, ip administered 1 hr prior to LPS-challenge measured after 3 hrs relative to control; format: organism-based; conditions: in vivo
[8] = tested on: Mus musculus; assay: Toxicity in LPS-induced C57BL/6 mouse model of lung inflammation assessed as change in liver weight at 1 to 100 mg/kg, ip administered 1 hr prior to LPS-challenge measured after 3 hrs relative to control; format: organism-based; conditions: in vivo
[9] = tested on: Mus musculus; assay: Toxicity in LPS-induced C57BL/6 mouse model of lung inflammation assessed as change in spleen weight at 10 mg/kg, ip administered 1 hr prior to LPS-challenge measured after 3 hrs relative to control; format: organism-based; conditions: in vivo
[10] = tested on: Mus musculus; assay: Toxicity in LPS-induced C57BL/6 mouse model of lung inflammation assessed as change in liver weight at 10 mg/kg, ip administered 1 hr prior to LPS-challenge measured after 3 hrs relative to control; format: organism-based; conditions: in vivo
[11] = tested on: Mus musculus; assay: Antiinflammatory activity in LPS-induced C57BL/6 mouse model of lung inflammation assessed as decrease in neutrophil infiltration in bronchoalveolar lavage fluid at 10 mg/kg, ip administered 1 hr prior to LPS-challenge measured after 3 hrs by Diff-Quik staining-based coulter particle counter method; format: functional, organism-based

CC(=O)Oc1ccccc1C(=O)O
Activity [1]: Active | Activity [2]: Active | Activity [3]: Active

CC(C)=CCC1=C(O)C(=O)c2ccccc2C1=O
inhibition [4]: inactive

O=C1C2=C(C(=O)c3ccccc31)C1Oc3ccccc3C1CO2 (racemic)
inhibition in vivo at 100 mg/kg [5]: 90% | Activity [6]: Active | Activity [1]: Active | Activity [7]: Non-toxic | Activity [2]: inactive | Activity [8]: Non-toxic | Activity [3]: Active

C[C@@H]1C[C@H]2[C@@H]3CCC4=CC(=O)C=C[C@]4(C)[C@@]3(F)[C@@H](O)C[C@]2(C)[C@@]1(O)C(=O)CO [DEXAMETHASONE]
Activity [9]: Toxic | Activity [10]: Toxic | Activity [11]: Active | Activity [1]: Active | Activity [2]: Active
